Reference: article PMC5506877 (Heliyon, 2017)
Several values for one entry are separate records, joined by “and”; a condition that tells them apart may be missing. Equal values may be shown once. Values belong to the compound of their own block, whether it stands above or below them.

Columns and labels:
[1] = human ADME study: metabolite profiling in plasma, urine and faeces after single oral [14C]alectinib; type: in vivo
Description: Human plasma for protein binding was obtained from three healthy male volunteers. All participants provided written informed consent prior to study related procedures. The protocol of human ADME study was approved by the Independent Ethics Committee of the Stichting Beoordeling Ethiek Bio-Medisch Onderzoek (Assen, The Netherlands), and that of protein binding study was approved by Chugai IRB.
Plasma samples were pooled at 4 h and 6 h (4 h + 6 h), and 8 h and 12 h (8 h +12 h) across the six subjects. An 18-mL aliquot of pooled plasma was extracted with the same volume of acetonitrile twice, and then the extract was lyophilized. The resulting residue was further extracted with 3 mL of acetonitrile/water (9:1, v/v) twice and lyophilized again. The resulting residue was reconstituted with 900 μL of methanol/water (7:3, v/v) to obtain the supernatant as an HPLC sample in which plasma was 20-fold concentrated.
Urine samples were pooled at 0–24 h, and at 24–72 h across the six subjects. A 16-mL aliquot of pooled urine was concentrated 20-fold using the same process for plasma.
Faecal samples were pooled at 0–48 h, 48–96 h, and 96–168 h across the six subjects. One to two weight equivalents of water was added to the faecal samples and the samples were homogenized and mixed with the same volume of acetonitrile. After following the same procedure as for plasma, the residue was reconstituted with methanol/water (7:3, v/v) or dimethyl sulfoxide (DMSO) and centrifuged, and the faecal sample was concentrated 5-fold for use in analysis.
Alkaline Conditions: For metabolite profiling, the extracted samples from plasma, urine, and faeces were subjected to HPLC under alkaline conditions using XBridge™ Shield RP18, 3.5 μm, 4.6 × 150 mm (Waters), and a linear stepwise gradient with solvent A (consisting of water/30%trimethylamine at 100:0.1, v/v) and solvent B (consisting of acetonitrile/30%trimethylamine at 100:0.1, v/v), and a flow rate of 1 mL/min. Solvent B in the gradient started at 1% and then changed as follows: 30% (2 min), 60% (29 min), 98% (29.1 min), 98% (32 min), 1% (32.1 min), and 1% (40 min). The UV wavelength was set at 335 nm. […]
Plasma and Urine: To profile metabolites, 150 μL of the same HPLC sample of plasma or 100 μL of the same HPLC sample of urine was injected 3 separate time, and the eluates collected at 15-second intervals were combined to be measured by a liquid scintillation counter (LSC) (Tri-Carb 3100TR, PerkinElmer, Inc.) at a low level count mode for 10 min.
Faeces: A radiodetector (Radiomatic 625TR, PerkinElmer, Inc.) was used, and the area percentage of each radioactive peak on the radiochromatograms was calculated with analysis software (FLO-ONE Ver. 3.65, PerkinElmer, Inc.). […]

[2] = cited from earlier work
[3] = plasma protein binding by equilibrium dialysis; type: in vitro ADME, human; conditions: for recovery at 24 h: pooled human plasma dialysed against PBS, human plasma / PBS after dialysis, read-out: recovery in the plasma protein binding (equilibrium dialysis) experiment
Description: Plasma was obtained by centrifugation (4 °C, 1600 g, 10 min, CF7D2, Hitachi Koki) of EDTA‐treated blood from three healthy male volunteers and was then pooled. […] Samples for M4 were mixed with deuterated M4 as an internal standard and acetonitrile/methanol (1:1, v/v). After centrifugation, the supernatant was injected into an LC/ESI-MS/MS system consisting of ACQUITY Ultra Performance LC (Waters) and API 4000 (AB Sciex) in positive-ion multiple-reaction monitoring (MRM) mode to measure M4 (Q1: m/z 457 and Q3: m/z 396) concentration. Chromatography was performed using ACQUITY UPLC BEH Phenyl (2.1 mm I.D. × 50 mm, 1.7 μm, Waters) at 60 °C; MP A: water/98% formic acid (1000/1, v/v), MP B: methanol/98% formic acid (1000/1, v/v), with a flow rate of 0.7 mL/min and a gradient program as follows: (time, % MP B): 0 min, 40%; 0.3 min, 40%; 1.9 min, 45%; 1.91 min, 90%; 2.20 min, 90%; 2.21 min, 40%; 2.70 min, stop. For the protein binding of M4, 1–5000 ng/mL in human plasma, and 0.5–2500 ng/mL in PBS were calibrated.
The recovery was calculated by the following equation.
Protein binding was calculated by the following equation.
Protein binding = (1−Cf/Cp) × 100 (%)
Where Cf and Cp represent the concentration in PBS and in plasma, respectively.

[4] = at pH 3.575; cited from earlier work
[5] = test system: NCI-H2228 NSCLC cell line that harbours EML4-ALK fusion; test: cell growth inhibition, CellTiter-Glo, NCI-H2228 spheroid culture; type: cell-based; conditions: for IC50: Homo sapiens
Description: Then test article solutions were added and the cell viability was measured after a 120-h incubation in a CO2 incubator. The luminescence was measured by EnVision HTS and the cell viability was calculated.

[6] = biological target: ALK (Homo sapiens, UniProt Q9UM73); test: inhibitory activity against ALK, cell-free TR-FRET kinase assay; type: biochemical; conditions: 90 min at 30 °C, geometric mean of triplicates
Sequence of ALK (Q9UM73 19-1620): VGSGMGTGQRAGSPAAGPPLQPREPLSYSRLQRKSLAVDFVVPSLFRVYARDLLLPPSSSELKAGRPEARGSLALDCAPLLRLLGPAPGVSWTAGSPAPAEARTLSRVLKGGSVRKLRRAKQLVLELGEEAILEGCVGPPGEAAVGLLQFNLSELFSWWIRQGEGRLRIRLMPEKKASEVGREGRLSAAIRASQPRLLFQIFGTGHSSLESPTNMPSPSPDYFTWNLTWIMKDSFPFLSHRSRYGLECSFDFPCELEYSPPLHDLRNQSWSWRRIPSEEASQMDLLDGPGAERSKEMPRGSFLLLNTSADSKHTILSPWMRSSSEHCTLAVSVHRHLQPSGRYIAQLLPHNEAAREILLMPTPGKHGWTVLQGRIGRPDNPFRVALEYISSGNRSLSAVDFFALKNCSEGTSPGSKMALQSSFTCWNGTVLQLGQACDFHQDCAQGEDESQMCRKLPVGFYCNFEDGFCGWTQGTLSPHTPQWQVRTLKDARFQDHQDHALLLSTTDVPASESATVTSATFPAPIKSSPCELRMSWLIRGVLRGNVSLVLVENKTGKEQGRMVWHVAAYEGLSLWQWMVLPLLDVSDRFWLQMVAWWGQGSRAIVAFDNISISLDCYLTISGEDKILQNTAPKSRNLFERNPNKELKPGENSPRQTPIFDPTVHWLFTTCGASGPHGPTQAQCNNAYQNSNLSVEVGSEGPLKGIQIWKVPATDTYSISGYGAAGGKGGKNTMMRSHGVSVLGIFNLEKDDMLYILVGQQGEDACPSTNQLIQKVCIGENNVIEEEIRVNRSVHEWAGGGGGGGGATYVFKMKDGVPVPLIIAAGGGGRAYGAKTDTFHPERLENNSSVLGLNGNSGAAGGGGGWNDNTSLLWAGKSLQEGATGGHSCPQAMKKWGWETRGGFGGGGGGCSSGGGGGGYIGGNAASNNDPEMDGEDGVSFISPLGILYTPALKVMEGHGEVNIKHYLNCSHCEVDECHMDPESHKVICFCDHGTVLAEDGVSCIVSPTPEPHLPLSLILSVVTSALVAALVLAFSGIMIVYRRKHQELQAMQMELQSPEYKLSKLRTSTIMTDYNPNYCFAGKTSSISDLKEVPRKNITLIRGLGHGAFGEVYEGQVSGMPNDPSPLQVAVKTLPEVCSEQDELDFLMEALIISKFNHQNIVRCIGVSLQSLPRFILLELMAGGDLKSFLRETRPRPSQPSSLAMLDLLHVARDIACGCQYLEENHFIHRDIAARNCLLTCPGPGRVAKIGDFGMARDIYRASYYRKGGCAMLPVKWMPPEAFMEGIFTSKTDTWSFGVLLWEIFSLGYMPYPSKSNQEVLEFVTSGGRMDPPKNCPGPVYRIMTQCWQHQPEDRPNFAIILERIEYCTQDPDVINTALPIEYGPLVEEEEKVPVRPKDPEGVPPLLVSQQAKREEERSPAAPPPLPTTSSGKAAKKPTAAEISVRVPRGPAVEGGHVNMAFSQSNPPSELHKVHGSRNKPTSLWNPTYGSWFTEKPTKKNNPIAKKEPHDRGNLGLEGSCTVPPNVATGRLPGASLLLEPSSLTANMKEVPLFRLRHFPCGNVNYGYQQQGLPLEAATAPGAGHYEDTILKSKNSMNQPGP
Description: Solutions of test articles, substrate/ATP (2 μmol/L substrate peptide-0.2 mol/L HEPES buffer containing 60 μmol/L ATP, 20 mmol/L MgCl2, 0.2 mmol/L DTT, and 40 μmol/L Na3VO4) and the enzyme (final concentration of 200 ng/mL) were mixed in a clear-bottomed 384-well black plate and incubated for 90 min at 30 °C. After adding stop solution (100 mmol/L EDTA-0.1 mol/L HEPES buffer), TR-FRET reagent (2.5 nmol/L of LANCE® Eu-W1024-labeled anti-phosphotyrosine (PT66) and 6.25 μg/mL of Streptavidine SureLight® APC) was added and the time-resolved fluorescence was measured by EnVision HTS (Model 2104, PerkinElmer).

[7] = human, single oral 600 mg/67 μCi [14C]alectinib, pooled across n = 6, ND: Not detected
[8] = male, human, plasma, human plasma, 37 °C 24 h dialysis, mean ± SD of triplicates
[9] = NCI-H2228 cells, 120-h incubation, geometric mean of triplicates

Structure (SMILES): CCc1cc2c(cc1N1CCC(N)CC1)C(C)(C)c1[nH]c3cc(C#N)ccc3c1C2=O [M6, 8-(4-amino-1-piperidyl)-9-ethyl-6,6-dimethyl-11-oxo-5H-benzo[b]carbazole-3-carbonitrile]
Percentage of drug related compound in analytical sample, Faeces 96–168 h [2, 7]: 5.6%

Structure (SMILES): CCc1cc2c(cc1N1CCC(N3CCOCC3)CC1)C(C)(C)c1[nH]c3cc(C#N)ccc3c1C2=O [Alectinib, 9-ethyl-6,6-dimethyl-8-(4-morpholino-1-piperidyl)-11-oxo-5H-benzo[b]carbazole-3-carbonitrile, reference compound]
human plasma protein binding over the range of concentration investigated ([3]; human plasma, all concentrations investigated): higher than 99%
fraction unbound at 24 h, 0.1 μg/mL ([3]; male, human, plasma, human plasma, 0.1 μg/mL, 37 °C 24 h dialysis, mean ± SD of triplicates): 0.004
fraction unbound at 24 h, 1 μg/mL [3, 8]: 0.003
fraction unbound at 24 h, 10 μg/mL ([3]; male, human, plasma, human plasma, 10 μg/mL, 37 °C 24 h dialysis, mean ± SD of triplicates): 0.003
recovery at 24 h ([3]; male): 85 ± 1.7%
logD [4]: 1.96
Cmax in plasma ([2]; human ADME study, 600 mg oral [14C]alectinib): 175 ng/mL
recovery of radioactivity within excretion in faeces ([2]; human, up to 168 h post-dose, % of dose administered): 97.8%
recovery of radioactivity within excretion in urine ([2]; human, up to 168 h post-dose): 0.5%

More lines, main results first:

ratio of M1a peak to M1b peak, radiochromatogram ([1]; human faeces 48–96 h, fractionated M1, acidic HPLC conditions, radioactivity): 1 to 9 and 1/9
ratio of M1a to M1b, extracted ion chromatogram (XIC) ([1]; human faeces 48–96 h, fractionated M1, acidic conditions, [M + H]+): 1 to 3 and 1/3
ratio of M1a to M1b in the XIC, plasma ([1]; human plasma, LC-MS acidic conditions): 1/8
ratio of M1a to M1b in the XIC, urine ([1]; human urine, LC-MS acidic conditions): 1/10
Structure (SMILES): CCc1cc2c(cc1N1CCC(NCCOCC(=O)O)CC1)C(C)(C)c1[nH]c3cc(C#N)ccc3c1C2=O [M1a]

IC50 [5, 9]: 320 nM
IC50 Cell growth [5, 9]: much weaker effect
fold shift in IC50 from the ALK enzyme inhibition assay to the cell growth inhibition assay ([5]; cell medium contained 10% FBS): ~200 fold
IC50 [6]: 1.6 nM
Structure (SMILES): CCc1cc2c(cc1N1CCC(N(CCO)CC(=O)O)CC1)C(C)(C)c1[nH]c3cc(C#N)ccc3c1C2=O [M1b]

IC50 [5, 9]: 37 nM
fraction unbound at 24 h, 0.3 μg/mL ([3]; male, human, plasma, human plasma, 0.3 μg/mL, 37 °C 24 h dialysis, mean ± SD of triplicates): 0.009
fraction unbound at 24 h, 1 μg/mL [3, 8]: 0.005
fraction unbound at 24 h, 2 μg/mL ([3]; male, human, plasma, human plasma, 2 μg/mL, 37 °C 24 h dialysis, mean ± SD of triplicates): 0.005
fraction unbound at 24 h ([3]; male, human, plasma, human plasma, all concentrations investigated, read-out: human plasma protein binding over the range of concentration investigated): < 0.01
recovery at 24 h ([3]; male): 82.7 ± 2.5%
IC50 [6]: 1.2 nM
Structure (SMILES): CCc1cc2c(cc1N1CCC(NCCO)CC1)C(C)(C)c1[nH]c3cc(C#N)ccc3c1C2=O [M4, 9-ethyl-8-[4-(2-hydroxyethylamino)-1-piperidyl]-6,6-dimethyl-11-oxo-5H-benzo[b]carbazole-3-carbonitrile]
AUC ratio for the percentage of total drug-related systemic exposure ([2]; human plasma, LC/MS drug concentration vs total radioactivity): 15%
amount of metabolite in faecal samples, % of the dose administered ([2]; human, faeces, single oral [14C]alectinib): 5.8%
Percentage of drug related compound in analytical sample, Faeces 0–48 h [2, 7]: 1.1%
Percentage of drug related compound in analytical sample, Faeces 48–96 h [2, 7]: 11.0%
Percentage of drug related compound in analytical sample, Faeces 96–168 h [2, 7]: 37.3%
Percentage of drug related compound in analytical sample, Plasma 4 h + 6 h [2, 7]: 7.0%
Percentage of drug related compound in analytical sample, Plasma 8 h + 12 h [2, 7]: 9.9%
Percentage of drug related compound in analytical sample, Urine 0–24 h [2, 7]: 9.0%
Percentage of drug related compound in analytical sample, Urine 24–72 h [2, 7]: 24.2%
